Reference: patent publication US8404708B2, “Dual NK1/NK3 receptor antagonists” (Hoffmann-La Roche Inc., priority 2004, dated 2013)
Read-outs that look alike come from different tables or passages of the source.

Key:
[1] = molecular target: T1, Recombinant human NK3 (hNK3) receptor (Homo sapiens, UniProt P29371); test: NK3 receptor binding, [3H]SR142801 displacement, membrane preparations
T1 construct: expressed in transfected cells
T1 sequence (P29371 1-465): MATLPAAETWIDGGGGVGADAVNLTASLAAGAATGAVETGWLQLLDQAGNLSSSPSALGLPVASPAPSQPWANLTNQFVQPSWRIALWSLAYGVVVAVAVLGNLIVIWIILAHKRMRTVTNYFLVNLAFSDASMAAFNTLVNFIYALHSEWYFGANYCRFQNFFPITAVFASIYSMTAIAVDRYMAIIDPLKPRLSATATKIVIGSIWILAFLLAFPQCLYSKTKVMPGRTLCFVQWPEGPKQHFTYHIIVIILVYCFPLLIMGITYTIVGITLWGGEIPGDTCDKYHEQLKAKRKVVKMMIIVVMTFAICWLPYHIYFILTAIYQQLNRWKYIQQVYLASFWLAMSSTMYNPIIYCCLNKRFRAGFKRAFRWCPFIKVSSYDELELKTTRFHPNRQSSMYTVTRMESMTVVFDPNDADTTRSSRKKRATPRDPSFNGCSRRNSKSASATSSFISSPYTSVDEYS
In short: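 Incubation ran 90 min at room temperature in 50 mM Tris-HCl pH 7.4 with 0.1% BSA, 4 mM MnCl2 and 1 μM phosphoramidon, using about 2.5 μg hNK3 membrane protein per well. Nonspecific binding was defined with 10 μM SB222200, and bound radioactivity was collected on PEI-soaked GF/C filters for scintillation counting.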

[2] = molecular target: human NK1 receptor (Homo sapiens, UniProt P25103); test: NK1 receptor binding, [3H]substance P displacement, CHO cell membranes
[3] = second value of the cell pKi NK1/NK3, hNK3 receptor, [3H]SR142801
[4] = first value of the cell pKi NK1/NK3, human NK1 receptor, [3H]substance P
[5] = second value of the cell NK1/NK3, read-out: pKi NK3 (converted)
[6] = first value of the cell NK1/NK3, read-out: pKi NK1 (converted)

Sequence of human NK1 receptor (P25103 whole entry): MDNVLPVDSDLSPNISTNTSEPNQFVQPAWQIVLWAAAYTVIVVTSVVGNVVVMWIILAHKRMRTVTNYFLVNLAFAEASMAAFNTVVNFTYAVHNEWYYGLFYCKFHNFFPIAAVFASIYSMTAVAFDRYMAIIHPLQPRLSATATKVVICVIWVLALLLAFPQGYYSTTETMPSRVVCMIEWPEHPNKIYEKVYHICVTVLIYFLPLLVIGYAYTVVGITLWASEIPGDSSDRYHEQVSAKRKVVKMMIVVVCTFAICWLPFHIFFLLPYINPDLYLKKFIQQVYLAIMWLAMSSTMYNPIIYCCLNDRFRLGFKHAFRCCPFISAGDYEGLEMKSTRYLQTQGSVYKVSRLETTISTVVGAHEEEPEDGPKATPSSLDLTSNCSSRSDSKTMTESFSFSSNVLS

| Structure (SMILES) | Ki [1, 3] [nM] | Ki [2, 4] [nM] | Ki [1, 5] [nM] | Ki [2, 6] [nM] |
| --- | --- | --- | --- | --- |
| CN(C(=O)C(C)(C)c1cc(C(F)(F)F)cc(C(F)(F)F)c1)c1cnc(N2CC[C@H](O)[C@H]2CO)cc1-c1ccc(Cl)cc1Cl [Example 137, (2R,3S)-2-(3,5-Bis-trifluoromethyl-phenyl)-N-[4-(2,4-dichloro-phenyl)-6-(3-hydroxy-2-hydroxymethyl-pyrrolidin-1-yl)-pyridin-3-yl]-N-methyl-isobutyramide] | 1.35 | 2.82 | – | – |
| Cc1cc(F)ccc1-c1cc(N2CCC[C@@H]2CO)ncc1N(C)C(=O)C(C)(C)c1cc(C(F)(F)F)cc(C(F)(F)F)c1 [Example 93, (R)-2-(3,5-Bis-trifluoromethyl-phenyl)-N-[4-(4-fluoro-2-methyl-phenyl)-6-(2-hydroxymethyl-pyrrolidin-1-yl)-pyridin-3-yl]-N-methyl-isobutyramide] | 7.41 | 1.12 | – | – |
| CN(C(=O)C(C)(C)c1cc(C(F)(F)F)cc(C(F)(F)F)c1)c1cnc(N2CCC[C@@H]2CO)cc1-c1ccccc1Cl [Example 41, (R)-2-(3,5-Bis-trifluoromethyl-phenyl)-N-[4-(2-chloro-phenyl)-6-(2-hydroxymethyl-pyrrolidin-1-yl)-pyridin-3-yl]-N-methyl-isobutyramide] | 7.59 | 1.07 | – | – |
| CN(C(=O)C(C)(C)c1cc(C(F)(F)F)cc(C(F)(F)F)c1)c1cnc(N2C[C@@H](O)C[C@H]2CO)cc1-c1ccccc1C#N [Example 245, (2S,4S)-2-(3,5-Bis-trifluoromethyl-phenyl)-N-[4-(2-cyano-phenyl)-6-(4-hydroxy-2-hydroxymethyl-pyrrolidin-1-yl)-pyridin-3-yl]-N-methyl-isobutyramide] | – | – | 1.1 | 1.2 |
| CN(C(=O)C(C)(C)c1cc(C(F)(F)F)cc(C(F)(F)F)c1)c1cnc(N2C[C@H](O)C[C@H]2CO)cc1-c1cccc(F)c1 [Example 207, (2S,4R)-2-(3,5-Bis-trifluoromethyl-phenyl)-N-[4-(3-fluoro-phenyl)-6-(4-hydroxy-2-hydroxymethyl-pyrrolidin-1-yl)-pyridin-3-yl]-N-methyl-isobutyramide] | – | – | 4.68 | 1.38 |
| Cc1cc(-c2cc(N3C[C@@H](O)C[C@H]3CO)ncc2N(C)C(=O)C(C)(C)c2cc(C(F)(F)F)cc(C(F)(F)F)c2)ccc1F [Example 248, (2S,4S)-2-(3,5-Bis-trifluoromethyl-phenyl)-N-[4-(4-fluoro-3-methyl-phenyl)-6-(4-hydroxy-2-hydroxymethyl-pyrrolidin-1-yl)-pyridin-3-yl]-N-methyl-isobutyramide] | – | – | 27.5 | 2.19 |
| Cc1ccccc1-c1cc(N2C[C@H](O)C[C@H]2CO)ncc1N(C)C(=O)C(C)(C)c1cc(F)cc(F)c1 [Example 16, (2S,4R)-2-(3,5-Difluoro-phenyl)-N-[6-(4-hydroxy-2-hydroxymethyl-pyrrolidin-1-yl)-4-o-tolyl-pyridin-3-yl]-N-methyl-isobutyramide] | 4.07 | 2.63 | – | – |
| CN(C(=O)C(C)(C)c1cc(C(F)(F)F)cc(C(F)(F)F)c1)c1cnc(N2CC[C@@H](O)[C@H](O)C2)cc1-c1ccccc1Cl (racemic) [Example 188, (3RS,4RS)-2-(3,5-Bis-trifluoromethyl-phenyl)-N-[4′-(2-chloro-phenyl)-3,4-dihydroxy-3,4,5,6-tetrahydro-2H-[1,2′]bipyridinyl-5′-yl]-N-methyl-isobutyramide] | 15.5 | 1.32 | – | – |
| CN(C(=O)C(C)(C)c1cc(F)cc(F)c1)c1cnc(N2C[C@H](O)C[C@H]2CO)cc1-c1ccccc1Cl [Example 6, (2S,4R)-N-[4-(2-Chloro-phenyl)-6-(4-hydroxy-2-hydroxymethyl-pyrrolidin-1-yl)-pyridin-3-yl]-2-(3,5-difluoro-phenyl)-N-methyl-isobutyramide] | 4.9 | 7.24 | – | – |
| CN(C(=O)C(C)(C)c1cc(C(F)(F)F)cc(C(F)(F)F)c1)c1cnc(N2CCN(C(=O)C3CC3)CC2)cc1-c1ccccc1Cl [Example 62, 2-(3,5-Bis-trifluoromethyl-phenyl)-N-[4-(2-chloro-phenyl)-6-(4-cyclopropanecarbonyl-piperazin-1-yl)-pyridin-3-yl]-N-methyl-isobutyramide] | 6.61 | 1.02 | – | – |
| Cc1cc(F)ccc1-c1cc(N2CC[C@@H](O)[C@H]2CO)ncc1N(C)C(=O)C(C)(C)c1cc(C(F)(F)F)cc(C(F)(F)F)c1 [Example 156, (2R,3R)-2-(3,5-Bis-trifluoromethyl-phenyl)-N-[4-(4-fluoro-2-methyl-phenyl)-6-(3-hydroxy-2-hydroxymethyl-pyrrolidin-1-yl)-pyridin-3-yl]-N-methyl-isobutyramide] | 1.58 | 1.74 | – | – |
| CN(C(=O)C(C)(C)c1cc(C(F)(F)F)cc(C(F)(F)F)c1)c1cnc(N2C[C@H](O)C[C@H]2CO)cc1-c1ccccc1C(N)=O [Example 219, (2S,4R)-2-[5-{[2-(3,5-Bis-trifluoromethyl-phenyl)-2-methyl-propionyl]-methyl-amino}-2-(4-hydroxy-2-hydroxymethyl-pyrrolidin-1-yl)-pyridin-4-yl]-benzamide] | – | – | 20.4 | 1.45 |

Further lines, results first:

| Ki [1, 3] [nM] | Ki [2, 4] [nM] | Ki [1, 5] [nM] | Ki [2, 6] [nM] | Structure (SMILES) |
| --- | --- | --- | --- | --- |
| – | – | 3.16 | 2.88 | CN(C(=O)C(C)(C)c1cc(C(F)(F)F)cc(C(F)(F)F)c1)c1cnc(N2C[C@@H](O)C[C@H]2CO)cc1-c1cccc(Cl)c1Cl [Example 253, (2S,4S)-2-(3,5-Bis-trifluoromethyl-phenyl)-N-[4-(2,3-dichloro-phenyl)-6-(4-hydroxy-2-hydroxymethyl-pyrrolidin-1-yl)-pyridin-3-yl]-N-methyl-isobutyramide] |
| – | – | 0.776 | 3.63 | Cc1ccncc1-c1cc(N2CCC[C@H]2CO)ncc1N(C)C(=O)C(C)(C)c1cc(C(F)(F)F)cc(C(F)(F)F)c1 [Example 292, (S)-2-(3,5-Bis-trifluoromethyl-phenyl)-N-[6′-(2-hydroxymethyl-pyrrolidin-1-yl)-4-methyl-[3,4′]bipyridinyl-3′-yl]-N-methyl-isobutyramide] |
| – | – | 1.78 | 1.45 | Cc1ncccc1-c1cc(N2CCC[C@H]2CO)ncc1N(C)C(=O)C(C)(C)c1cc(C(F)(F)F)cc(C(F)(F)F)c1 [Example 290, (S)-2-(3,5-Bis-trifluoromethyl-phenyl)-N-[6′-(2-hydroxymethyl-pyrrolidin-1-yl)-2-methyl-[3,4′]bipyridinyl-3′-yl]-N-methyl-isobutyramide] |
| – | – | 1.86 | 1.82 | COc1ccccc1-c1cc(N2CCC[C@H]2CO)ncc1N(C)C(=O)C(C)(C)c1cc(C(F)(F)F)cc(C(F)(F)F)c1 [Example 280, (S)-2-(3,5-Bis-trifluoromethyl-phenyl)-N-[6-(2-hydroxymethyl-pyrrolidin-1-yl)-4-(2-methoxy-phenyl)-pyridin-3-yl]-N-methyl-isobutyramide] |
| – | – | 1.86 | 1.58 | CN(C(=O)C(C)(C)c1cc(C(F)(F)F)cc(C(F)(F)F)c1)c1cnc(N2CCC[C@H]2CO)cc1-c1cccc(Cl)c1Cl [Example 285, (S)-2-(3,5-Bis-trifluoromethyl-phenyl)-N-[4-(2,3-dichloro-phenyl)-6-(2-hydroxymethyl-pyrrolidin-1-yl)-pyridin-3-yl]-N-methyl-isobutyramide] |
| – | – | 2.14 | 1.48 | CN(C(=O)C(C)(C)c1cc(C(F)(F)F)cc(C(F)(F)F)c1)c1cnc(N2CC[C@H](O)[C@H]2CO)cc1-c1ccccc1F [Example 264, (2R,3S)-2-(3,5-Bis-trifluoromethyl-phenyl)-N-[4-(2-fluoro-phenyl)-6-(3-hydroxy-2-hydroxymethyl-pyrrolidin-1-yl)-pyridin-3-yl]-N-methyl-isobutyramide] |
